Target: jack bean urease (Canavalia ensiformis, UniProt P07374)
Experiment: urease inhibition by indophenol (Weatherburn) ammonia assay; Lineweaver-Burk, secondary replot and Dixon plot kinetics (IC50 […])
Format: biochemical

Sequence of jack bean urease (P07374 whole entry, looked up): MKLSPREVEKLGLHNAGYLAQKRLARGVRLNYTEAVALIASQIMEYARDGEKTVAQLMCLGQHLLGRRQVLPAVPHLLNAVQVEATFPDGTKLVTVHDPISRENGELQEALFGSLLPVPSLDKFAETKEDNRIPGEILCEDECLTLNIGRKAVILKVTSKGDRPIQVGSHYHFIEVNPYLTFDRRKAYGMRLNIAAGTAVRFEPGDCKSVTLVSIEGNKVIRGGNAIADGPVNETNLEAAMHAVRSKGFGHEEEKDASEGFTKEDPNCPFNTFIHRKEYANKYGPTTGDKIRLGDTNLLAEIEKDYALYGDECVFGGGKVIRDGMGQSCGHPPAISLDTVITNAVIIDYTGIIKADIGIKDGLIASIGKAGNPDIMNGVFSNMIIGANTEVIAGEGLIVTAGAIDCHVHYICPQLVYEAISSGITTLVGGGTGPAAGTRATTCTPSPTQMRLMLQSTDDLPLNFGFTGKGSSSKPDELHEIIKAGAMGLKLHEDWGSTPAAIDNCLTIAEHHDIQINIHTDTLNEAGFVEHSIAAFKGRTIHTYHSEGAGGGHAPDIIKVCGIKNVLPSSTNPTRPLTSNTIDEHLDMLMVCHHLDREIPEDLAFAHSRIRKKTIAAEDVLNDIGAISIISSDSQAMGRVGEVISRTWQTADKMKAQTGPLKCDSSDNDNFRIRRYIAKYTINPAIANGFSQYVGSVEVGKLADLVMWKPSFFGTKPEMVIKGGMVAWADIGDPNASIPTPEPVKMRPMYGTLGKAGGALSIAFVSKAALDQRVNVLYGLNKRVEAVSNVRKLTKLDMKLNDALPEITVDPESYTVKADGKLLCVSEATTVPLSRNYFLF

C=C[C@@H](C1=CC(=O)C=C(OC)C1=O)c1ccccc1 [compound 1, 3-methoxydalbergione]
Ki: 138.16 ± 0.06 µM
